“And” between values parts separate entries of the source, which are not always exact repeats. Equal values may be shown once. Marks after values point to notes of the source that are not given here.
How the values were obtained:
[1] = tested on: osteoclast differentiation; assay: Osteoclast differentiation in co-culture of mouse bone marrow cells and calvarial osteoblasts, TRAP staining (Examples 1-7); format: cell-based; conditions: day 7
[2] = tested on: osteoclast differentiation; assay: Osteoclast differentiation in co-culture of mouse bone marrow cells and ST2 cells, TRAP staining (Examples 8-9); format: cell-based; conditions: for % number of osteoclast (vs. solvent control group): day 7; for activity at 0.1 µM: Mus musculus, Osteoclast, 168 h, day 7, read-out: % number of osteoclast (vs. solvent control group)
Summary of the method: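 Readout was TRAP-positive multinucleated (≥6 nuclei) cells on day 7, reported as % of 0.1% DMSO control, mean±SD of 4 wells. Cells were mouse (male ddY) bone marrow plus ST2 co-cultures driven by 10^−8 M vitamin D3/dexamethasone. Benzamidines, alendronic acid or risedronic acid were added at 0.1 μM alone or combined, with media renewed days 3 and 5.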

[3] = Combination treatment (alendronic acid + compounds), 0.1 μM each
[4] = Combination treatment (risedronic acid + compounds), 0.1 μM each
[5] = Individual treatment (compounds), 0.1 μM
[6] = Mus musculus, Osteoclast, 168 h, individual treatment of Compound (0.1 μM), read-out: % number of osteoclast (vs. solvent control group)
[7] = combination treatment of alendronic acid (0.2 μM) with compound (0.1 μM)
[8] = combination treatment of clodronic acid (1 μM) with compound (0.1 μM)
[9] = combination treatment of etidronic acid (2 μM) with compound (0.1 μM)
[10] = combination treatment of ibandronic acid (0.1 μM) with compound (0.1 μM)
[11] = combination treatment of pamidronic acid (0.1 μM) with compound (0.1 μM)
[12] = combination treatment of risedronic acid (0.1 μM) with compound (0.1 μM)
[13] = combination treatment of zoledronic acid (0.01 μM) with compound (0.1 μM)
[14] = individual treatment of Compound (0.1 μM)
[15] = singly treated with 0.1 μM alendronic acid
[16] = singly treated with 0.1 μM risedronic acid

O=P(O)(O)C(O)(Cn1ccnc1)P(=O)(O)O [zoledronic acid, reference compound]
activity at 0.01 µM ([1]; Mus musculus, Osteoclast, 168 h, individual treatment of zoledronic acid (0.01 μM), read-out: % number of osteoclast (vs. solvent control group)): 84% | % number of osteoclast (vs. solvent control group) ([1]; individual treatment of zoledronic acid (0.01 μM)): 84 ± 4.1 %

CN(CCN1CCOCC1)c1nc(-c2ccc(OCCCCCOc3ccc(C(=N)NO)cc3)cc2)cs1 [Compound 119, N-hydroxy-4-[5-(4-{2-[methyl-(2-morpholinoethyl)amino]-1,3-thiazol-4-yl}phenoxy)pentyloxy]-benzamidine]
% number of osteoclast (vs. solvent control group) [2, 3]: 29 ± 4.9^ab % | % number of osteoclast (vs. solvent control group) [2, 4]: 29 ± 8.7^ac % | activity at 0.1 µM [2, 5]: 78 ± 9% | activity at 0.1 µM [1, 6]: 66% | % number of osteoclast (vs. solvent control group) [1, 7]: 29% and 29 ± 5.3*^#@ % | % number of osteoclast (vs. solvent control group) [1, 8]: 47% and 47 ± 13.0*^#@ % | % number of osteoclast (vs. solvent control group) [1, 9]: 38% and 38 ± 8.2*^#@ % | % number of osteoclast (vs. solvent control group) [1, 10]: 36 ± 9.8*^#@ % | % number of osteoclast (vs. solvent control group) [1, 11]: 37% and 37 ± 5.0*^#@ % | % number of osteoclast (vs. solvent control group) [1, 12]: 38% and 38 ± 6.8*^#@ % | % number of osteoclast (vs. solvent control group) [1, 13]: 42 ± 8.1*^#@ % | % number of osteoclast (vs. solvent control group) [1, 14]: 66 ± 8.3 %

O=P(O)(O)C(Cl)(Cl)P(=O)(O)O [clodronic acid, reference compound]
activity at 1 µM ([1]; Mus musculus, Osteoclast, 168 h, individual treatment of clodronic acid (1 μM), read-out: % number of osteoclast (vs. solvent control group)): 88% | % number of osteoclast (vs. solvent control group) ([1]; individual treatment of clodronic acid (1 μM)): 88 ± 9.7 %

NCCCC(O)(P(=O)(O)O)P(=O)(O)O [alendronic acid, reference compound]
activity at 0.1 µM [2, 15]: 76% | % number of osteoclast (vs. solvent control group) [2, 15]: 76 ± 6.2 % | activity at 0.2 µM ([1]; Mus musculus, Osteoclast, 168 h, individual treatment of alendronic acid (0.2 μM), read-out: % number of osteoclast (vs. solvent control group)): 80% | % number of osteoclast (vs. solvent control group) ([1]; individual treatment of alendronic acid (0.2 μM)): 80 ± 5.7 %

NCCC(O)(P(=O)(O)O)P(=O)(O)O [pamidronic acid, reference compound]
activity at 0.1 µM ([1]; Mus musculus, Osteoclast, 168 h, individual treatment of pamidronic acid (0.1 μM), read-out: % number of osteoclast (vs. solvent control group)): 82% | % number of osteoclast (vs. solvent control group) ([1]; individual treatment of pamidronic acid (0.1 μM)): 82 ± 6.7 %

Cc1nc(-c2ccc(OCCCCCOc3ccc(C(=N)NO)c(F)c3)cc2)c(C(C)C)s1 [Compound 187, N-hydroxy-2-fluoro-4-{5-[4-(5-isopropyl-2-methyl-1,3-thiazol-4-yl)-phenoxy]-pentyloxy}-benzamidine]
activity at 0.1 µM [1, 6]: 67% | % number of osteoclast (vs. solvent control group) [1, 7]: 32% and 32 ± 8.1*^#@ % | % number of osteoclast (vs. solvent control group) [1, 8]: 60 ± 15.2*^#@ % | % number of osteoclast (vs. solvent control group) [1, 9]: 41% and 41 ± 7.5*^#@ % | % number of osteoclast (vs. solvent control group) [1, 10]: 42% and 42 ± 8.1*^#@ % | % number of osteoclast (vs. solvent control group) [1, 11]: 47% and 47 ± 10.5*^#@ % | % number of osteoclast (vs. solvent control group) [1, 12]: 40% and 40 ± 6.6*^#@ % | % number of osteoclast (vs. solvent control group) [1, 13]: 43% and 43 ± 4.5*^#@ % | % number of osteoclast (vs. solvent control group) [1, 14]: 67% and 67 ± 7.4 %

CC(O)(P(=O)(O)O)P(=O)(O)O [etidronic acid, reference compound]
activity at 2 µM ([1]; Mus musculus, Osteoclast, 168 h, individual treatment of etidronic acid (2 μM), read-out: % number of osteoclast (vs. solvent control group)): 86% | % number of osteoclast (vs. solvent control group) ([1]; individual treatment of etidronic acid (2 μM)): 86 ± 6.9 %

CCCCCN(C)CCC(O)(P(=O)(O)O)P(=O)(O)O [ibandronic acid, reference compound]
activity at 0.1 µM ([1]; Mus musculus, Osteoclast, 168 h, individual treatment of ibandronic acid (0.1 μM), read-out: % number of osteoclast (vs. solvent control group)): 77% | % number of osteoclast (vs. solvent control group) ([1]; individual treatment of ibandronic acid (0.1 μM)): 77 ± 8.2 %

CC(C)c1sc(N2CCOCC2)nc1-c1ccc(OCCCCCOc2ccc(C(=N)NO)cc2)cc1 [Compound 169, N-hydroxy-4-{5-[4-(5-isopropyl-2-morpholino-1,3-thiazol-4-yl)phenoxy]pentyloxy}-benzamidine]
activity at 0.1 µM [1, 6]: 78% | % number of osteoclast (vs. solvent control group) [1, 7]: 44% and 44 ± 7.4*^#@ % | % number of osteoclast (vs. solvent control group) [1, 8]: 59% and 59 ± 14.0*^#@ % | % number of osteoclast (vs. solvent control group) [1, 9]: 49% and 49 ± 9.7*^#@ % | % number of osteoclast (vs. solvent control group) [1, 10]: 54 ± 8.7*^#@ % | % number of osteoclast (vs. solvent control group) [1, 11]: 50% and 50 ± 8.7*^#@ % | % number of osteoclast (vs. solvent control group) [1, 12]: 42% and 42 ± 7.6*^#@ % | % number of osteoclast (vs. solvent control group) [1, 13]: 59 ± 8.2*^#@ % | % number of osteoclast (vs. solvent control group) [1, 14]: 78 ± 8.6 %

CCCN(CCC)c1nc(-c2ccc(OCCCCCOc3ccc(C(=N)NO)cc3)cc2)c(CC)s1 [Compound 138, N-hydroxy-4-{5-[4-(2-dipropylamino-5-ethyl-1,3-thiazol-4-yl)phenoxy]pentyloxy}-benzamidine]
% number of osteoclast (vs. solvent control group) [2, 3]: 18 ± 6.8^ab % | % number of osteoclast (vs. solvent control group) [2, 4]: 31 ± 3.2^ac % | activity at 0.1 µM [2, 5]: 57 ± 7.2% | activity at 0.1 µM [1, 6]: 71% | % number of osteoclast (vs. solvent control group) [1, 7]: 32% and 32 ± 8.9*^#@ % | % number of osteoclast (vs. solvent control group) [1, 8]: 54 ± 11.9*^#@ % | % number of osteoclast (vs. solvent control group) [1, 9]: 40% and 40 ± 8.4*^#@ % | % number of osteoclast (vs. solvent control group) [1, 10]: 45 ± 7.6*^#@ % | % number of osteoclast (vs. solvent control group) [1, 11]: 42% and 42 ± 6.2*^#@ % | % number of osteoclast (vs. solvent control group) [1, 12]: 35% and 35 ± 8.2*^#@ % | % number of osteoclast (vs. solvent control group) [1, 13]: 48 ± 8.9*^#@ % | % number of osteoclast (vs. solvent control group) [1, 14]: 71 ± 6.5 %

CCc1sc(NC)nc1-c1ccc(OCCCCCOc2ccc(C(=N)NO)cc2)cc1 [Compound 96, N-hydroxy-4-{5-[4-(5-ethyl-2-methylamino-1,3-thiazol-4-yl)phenoxy]pentyloxy}-benzamidine]
% number of osteoclast (vs. solvent control group) [2, 3]: 55 ± 10.0% | % number of osteoclast (vs. solvent control group) [2, 4]: 34 ± 7.1^ac % | activity at 0.1 µM [2, 5]: 74 ± 8.1%

N=C(NO)c1ccc(OCCCCCOc2ccc(-c3nc(CN4CCCCC4)sc3CCN3CCOCC3)cc2)cc1 [Compound 276, N-hydroxy-4-(5-{4-[5-(2-morpholin-4-yl-ethyl)-2-piperidin-1-yl-methyl-thiazol-4-yl]-phenoxy}-pentyloxy)-benzamidine]
% number of osteoclast (vs. solvent control group) [2, 3]: 21 ± 2.9^b % | % number of osteoclast (vs. solvent control group) [2, 4]: 11 ± 3.1^c % | activity at 0.1 µM [2, 5]: 41 ± 12.1%

O=P(O)(O)C(O)(Cc1cccnc1)P(=O)(O)O [risedronic acid, reference compound]
activity at 0.1 µM [2, 16]: 69% | % number of osteoclast (vs. solvent control group) [2, 16]: 69 ± 6.7 % | activity at 0.1 µM ([1]; Mus musculus, Osteoclast, 168 h, individual treatment of risedronic acid (0.1 μM), read-out: % number of osteoclast (vs. solvent control group)): ~82% | % number of osteoclast (vs. solvent control group) ([1]; individual treatment of risedronic acid (0.1 μM)): 82 ± 5.2 %

Cc1nc(-c2ccc(OCCCCCOc3ccc(C(=N)NO)cc3)cc2)c(N(C)C)s1 [Compound 326, N-hydroxy-4-{5-[4-(5-dimethylamino-2-methyl-thiazol-4-yl)-phenoxy]-pentyloxy}-benzamidine]
% number of osteoclast (vs. solvent control group) [2, 3]: 34 ± 2.7^b % | % number of osteoclast (vs. solvent control group) [2, 4]: 15 ± 6.0^ac % | activity at 0.1 µM [2, 5]: 46 ± 11%

CCc1sc(N(CC)CCN2CCOCC2)nc1-c1ccc(OCCCCCOc2ccc(C(=N)NO)cc2)cc1 [Compound 132, N-hydroxy-4-[5-(4-{5-ethyl-2-[ethyl-(2-morpholinoethyl)-amino]-1,3-thiazol-4-yl}phenoxy)pentyloxy]-benzamidine]
% number of osteoclast (vs. solvent control group) [2, 3]: 37 ± 8.3^ab % | % number of osteoclast (vs. solvent control group) [2, 4]: 30 ± 3.4^ac % | activity at 0.1 µM [2, 5]: 62 ± 7.7%

CN(Cc1cccnc1)c1nc(-c2ccc(OCCCCCOc3ccc(C(=N)NO)cc3)cc2)c(CN2CCOCC2)s1 [Compound 321, N-hydroxy-4-(5-{4-[2-(methyl-pyridin-3-ylmethyl-amino)-5-morpholin-4-ylmethyl-thiazol-4-yl]-phenoxy}-pentyloxy)-benzamidine]
% number of osteoclast (vs. solvent control group) [2, 3]: 19 ± 4.1^ab % | % number of osteoclast (vs. solvent control group) [2, 4]: 18 ± 3.0^ac % | activity at 0.1 µM [2, 5]: 48 ± 7%

CN(CCN1CCOCC1)c1nc(-c2ccc(OCCCCCOc3ccc(C(=N)NO)cc3)cc2)c(CN2CCSCC2)s1 [Compound 314, N-hydroxy-4-[5-(4-{2-[methyl-(2-morpholin-4-yl-ethyl)-amino]-5-thiomorpholin-4-ylmethyl-thiazol-4-yl}-phenoxy)-pentyloxy]-benzamidine]
% number of osteoclast (vs. solvent control group) [2, 3]: 15 ± 1.7^ab % | % number of osteoclast (vs. solvent control group) [2, 4]: 9 ± 3.2^ac % | activity at 0.1 µM [2, 5]: 43 ± 7%

From US8008329B2 (Dong Wha Pharmaceutical Co., Ltd., priority 2008, dated 2011)
